In brackets after ≈: the same amount, converted by molar mass. Read-outs that look alike come from different tables or passages of the source.
What was measured:
[1] = Aqueous solubility (pH 7.4); format: physicochemical
[2] = Stability of aqueous suspension, 2 weeks at 40° C./75% relative humidity (XPRD); format: physicochemical; details: aqueous 0.25% CMC-Na/0.5% TWEEN-80 suspension
Method: LC-MS (ESI+): m/z 502.41 [M+H]^+. About 275 mg/g of Compound 6 was suspended in aqueous 0.25% CMC-Na/0.5% TWEEN-80 (26 gauge syringeability) and was subjected to stability for 2 weeks at 40° C./75% relative humidity.

[3] = SC rat PK: EFdA plasma levels; details: for Cmax compared with EFdA / duration of plasma levels of EFdA above lower limit of quantitation (LLOQ): single SC dose, 10 mg/kg EFdA equivalent, 4 mg/mL; for half life and mean residence life compared with EFdA: SC, 100 mg/kg EFdA equivalent
Method: (§1) • Animals: Animals (Male SD rats ˜200-250 g and Male rhesus macaques ˜2-3 kg) were obtained from an approved vendor (SLAC Laboratory Animal Co. Ltd., Shanghai, China and/or Topgene Biotechnology, Wuhan city, Hubei Province, China). • Acclimation/Quarantine: Following arrival, animals were assessed as to their general health by a member of the veterinary staff or other authorized personnel. Animals were acclimated for at least 3 days before being placed on study. • Animal Husbandry: Animals were group housed during acclimation and individually housed during the study. The animal room environment will be controlled (target conditions: temperature 18 to 26° C., relative humidity 30 to 70%, 12 hours artificial light and 12 hours dark). Temperature and relative humidity were monitored daily. • Animal Cannulation: No
(§2) Animals were fasted at least 12 hours prior to the administration. All animals had access to Certified Rodent and non-Rodent Diet (Catalog #M01-F, SLAC Laboratory Animal Cl. Ltd., Shanghai, China) ad libitum 4 hours post dosing.
Animals were dosed within four hours of suspension preparation. Two 20 μL aliquots of each prepared suspension were transferred into 1.5 mL of polypropylene microcentrifuge tubes and dose validation was run by LC/UV or LC-MS/MS.
The suspensions were administered via subcutaneous injection (SC) following facility standard operations procedures (SOPs).
Approximately 200 μL blood was collected from saphenous vein at each time point for rats and 0.5 mL for rhesus macaques. All blood samples were transferred into microcentrifuge tubes containing 4 μL of K2EDTA (0.5M) as anti-coagulant and placed on wet ice until processed for plasma.
Blood: Blood samples were processed for plasma by centrifugation at approximately 4° C., 3000 g 15 min within half an hour of collection. Plasma samples was stored in polypropylene tubes, quick frozen over dry ice and kept at −70±10° C. until LC/MS/MS analysis.
If the carryover couldn't meet the criteria, then the percent of carryover should be estimated following in-house bioanalytical SOP. 6. Data Analysis
Plasma concentration versus time data was analyzed by non-compartmental approaches using the Phoenix WinNonlin 6.3 software program. Cmax, Tmax, T1/2, AUC(0-t), AUC(0-inf), MRT(0-t), MRT(0-inf), % F and graphs of plasma concentration versus time profile were generated.
Several prodrugs including EFdA (1) as a control were subjected to a single dose rat PK studies via subcutaneous route of administration. All animals were injected with equivalent doses of 10 mg/kg and concentration of 4 mg/mL of EFdA as an aqueous suspension in 0.5% CMC-Na and 0.5% TWEEN-80.
After optimization, SC rat PK studies were performed again with high equivalent dose of 100 mg/kg at equivalent concentration of 120 mg/mL for Compound 3, 116 mg/mL for Compound 5, and 319 mg/mL of EFdA, respectively.

[4] = SC rhesus PK: EFdA plasma levels; details: rhesus macaque, single SC dose, 50 mg/kg EFdA equivalent
Method: as §1, §2
Animals were dosed within four hours of suspension preparation. […]
Plasma concentration versus time data was analyzed by non-compartmental approaches using the Phoenix WinNonlin 6.3 software program. […]

[5] = Optimization of surfactant concentration in Compound 5 suspension (syringeability, viscosity, flow, resuspension); format: physicochemical; set-up: key to Flow: + No Flow; ++ Less Flow; +++ Good Flow; ++++ Very Good Flow; key to Viscosity: ++++ Slightly Viscous; +++ Viscous; ++ Very Viscous; + Semisolid; key to Syringeability (26 G): ✓: Syringeable; details: 400 mg/gm Compound 5, after 10 days of storage
Method: The concentration of surfactant was optimized with 0.3% and 0.5% of methyl cellulose in a formation containing 400 mg/gm of micronized Compound 5. Formulations were prepared with different concentrations of TWEEN-80 (0.1, 0.2 and 0.3%).

[6] = aqueous medium at pH 7.4, pH 7.4, aqueous buffer, read-out: Aqueous solubility (pH 7.4)
[7] = 0.3% Methyl Cellulose, 0.1% TWEEN-80
[8] = 0.3% Methyl Cellulose, 0.2% TWEEN-80
[9] = 0.3% Methyl Cellulose, 0.3% TWEEN-80
[10] = 0.5% Methyl Cellulose, 0.1% TWEEN-80
[11] = 0.5% Methyl Cellulose, 0.2% TWEEN-80
[12] = 0.5% Methyl Cellulose, 0.3% TWEEN-80

For `C#C[C@]1(CO)O[C@@H](n2cnc3c(N)nc(F)nc32)C[C@@H]1O` [Compound 1, 4′-Ethynyl-2-fluoro-2′-deoxyadenosine, reference compound], the solubility ([1]; aqueous medium at physiological pH, pH 7.4, aqueous buffer, read-out: aqueous solubility at physiological pH) was 877 µg/mL (≈ 2990 µM).
With `C#C[C@]1(COC(=O)c2ccccc2)O[C@@H](n2cnc3c(N)nc(F)nc32)C[C@@H]1OC(=O)c1ccccc1` [Compound 6, (2R,3S,5R)-5-(6-amino-2-fluoro-9H-purin-9-yl)-2-((benzoyloxy)methyl)-2-ethynyl tetrahydrofuran-3-yl benzoate] the solubility [1, 6] was under 2 µg/mL and the “crystallinity in suspension (XPRD)” value [2] was “retains good crystallinity in suspension”.
With `C#C[C@]1(COC(=O)C(C)C)O[C@@H](n2cnc3c(N)nc(F)nc32)C[C@@H]1OC(=O)C(C)C` [Compound 2, (2R,3S,5R)-5-(6-amino-2-fluoro-9H-purin-9-yl)-2-ethynyl-2-((isobutyryloxy)methyl)tetrahydrofuran-3-yl isobutyrate] the “crystallinity in suspension (XPRD)” value [2] was “retains good crystallinity in suspension”, the “Cmax compared with EFdA” value [3] was “much lower than for EFdA” and the “duration of plasma levels of EFdA above lower limit of quantitation (LLOQ)” value [3] was “more than a week”.
For `C#C[C@]1(COC(=O)Cc2ccccc2)O[C@@H](n2cnc3c(N)nc(F)nc32)C[C@@H]1OC(=O)Cc1ccccc1` [Compound 5, (2R,3S,5R)-5-(6-amino-2-fluoro-9H-purin-9-yl)-2-ethynyl-2-((2-phenylacetoxy)methyl)tetrahydrofuran-3-yl 2-phenylacetate], the “half life and mean residence life compared with EFdA” value [3] was “Enhanced half life and mean residence life”, the “Cmax compared with EFdA” value [3] was “much lower than for EFdA” and the “duration of plasma levels of EFdA above lower limit of quantitation (LLOQ)” value [3] was “more than a week”. The “duration of plasma levels of EFdA above LLOQ” value [4] was “more than a month”, the Flow [5, 7] was “++++” and the “Syringeability (26 G)” value [5, 7] was “✓”. The “Time Taken to Resuspend” value [5, 7] was 2.2 min, the Viscosity [5, 7] was “++++” and the Flow [5, 8] was “++++”. The “Syringeability (26 G)” value [5, 8] was “✓”, the “Time Taken to Resuspend” value [5, 8] was 2.5 min and the Viscosity [5, 8] was “++++”. For the same molecule, the Flow [5, 9] was “++++”, the “Syringeability (26 G)” value [5, 9] was “✓” and the “Time Taken to Resuspend” value [5, 9] was 2.3 min. For the same molecule, the Viscosity [5, 9] was “++++”, the Flow [5, 10] was “++++” and the “Syringeability (26 G)” value [5, 10] was “✓”. For the same molecule, the “Time Taken to Resuspend” value [5, 10] was 2.5 min, the Viscosity [5, 10] was “++++” and the Flow [5, 11] was “++++”. The “Syringeability (26 G)” value [5, 11] was “✓”, the “Time Taken to Resuspend” value [5, 11] was 2.5 min and the Viscosity [5, 11] was “++++”. The Flow [5, 12] was “++++”, the “Syringeability (26 G)” value [5, 12] was “✓” and the “Time Taken to Resuspend” value [5, 12] was 3.0 min. The Viscosity [5, 12] was “++++”.
In the case of `C#C[C@]1(COC(=O)C2CCCC2)O[C@@H](n2cnc3c(N)nc(F)nc32)C[C@@H]1OC(=O)C1CCCC1` [Compound 4, (2R,3S,5R)-5-(6-amino-2-fluoro-9H-purin-9-yl)-2-(((cyclopentanecarbonyl)oxy)methyl)-2-ethynyltetrahydrofuran-3-yl cyclopentanecarboxylate], the solubility [1, 6] is reported as under 1 µg/mL.
For `C#C[C@]1(COC(=O)C(CC)CC)O[C@@H](n2cnc3c(N)nc(F)nc32)C[C@@H]1OC(=O)C(CC)CC` [Compound 3, (2R,3S,5R)-5-(6-amino-2-fluoro-9H-purin-9-yl)-2-(((2-ethylbutanoyl)oxy)methyl)-2-ethynyltetrahydrofuran-3-yl 2-ethylbutanoate], the “half life and mean residence life compared with EFdA” value [3] was “Enhanced half life and mean residence life”, the “Cmax compared with EFdA” value [3] was “much lower than for EFdA” and the “duration of plasma levels of EFdA above lower limit of quantitation (LLOQ)” value [3] was “more than a week”.
